Measurements published in PubChem BioAssay AID1996.
Converted amounts (≈) assume the structure as drawn.

Conditions: buffer; pH 7.4; 200.0 µM

Compound | solubility kinetic [µg/mL]
O=S(=O)(NCc1ccco1)c1ccc2ccccc2c1 | 11.3 (≈ 39.3 µM)
Brc1ccsc1-c1csc(-c2ccncc2)n1 | 2.7 (≈ 8.35 µM)
CCOc1ccc(NC(=O)c2cc(OC)nc3ccccc23)cc1 | 0.6 (≈ 1.86 µM)
C=CCNC(=S)N1CCC(C(N)=O)CC1 | > 34.1
Cc1nnc(-c2ccc(N3CCOCC3)c([N+](=O)[O-])c2)o1 | > 43.5
COC(=O)C(Cc1cccc(C)n1)(c1ccccc1)c1ccccc1 | 14.2 (≈ 42.8 µM)
Cc1cc(S(=O)(=O)Nc2c(C)nn(C)c2C)c(Cl)cc1Cl | > 52.2
O=C(O)/C=C/c1cccnc1 | > 22.4
O=C(Nc1cccnc1)c1ccc([N+](=O)[O-])o1 | > 35
CCCOc1ccc(NC(=O)CC2Nc3ccccc3NC2=O)cc1 (configuration not stated) | 2.7 (≈ 7.96 µM)
COC(=O)c1ccc(Nc2ccc3nonc3c2[N+](=O)[O-])cc1 | < 0.2
Cc1ccc(C(=O)N/C(=C\c2cccnc2)C(=O)N2CCCC2)cc1 | > 50.3
CCC(C)c1ccc(NC(=O)NCCN2CCCCC2)cc1 (configuration not stated) | 40.3 (≈ 133 µM)
CCN(CC)CC(=O)Nc1ccc(C)cc1C(=O)c1ccccc1 | > 48.7
O=C(O)/C=C/C(=O)Nc1ccc(OC(F)F)cc1 | > 38.6
CCC(C(=O)N1CCN(c2ncccn2)CC1)c1ccccc1 (configuration not stated) | 41.7 (≈ 134 µM)
COc1ccc(C(=O)NCc2c(C)oc(C)c2C(=O)O)cc1 | > 45.5
CCOC(=O)C1Sc2ccccc2NC1=O (configuration not stated) | > 35.6
COc1ccc(OC)c(NC(=O)C2=C(C)NC(=O)NC2c2cccs2)c1 (configuration not stated) | 25.3 (≈ 67.7 µM)
Cc1c(/C=N/O)sc2ccccc12 | 10.8 (≈ 56.5 µM)
O=C1CCC(C(=O)N2CCCC2)CN1CCc1cccc(F)c1 (configuration not stated) | > 47.8

Compound | solubility kinetic [µg/mL]
CC(C)(C)c1ccccc1NC(=O)C1=COCCO1 | > 39.2
O=C(Nc1cccc(C(=O)NC2CCCC2)c1)c1ccccc1 | 21.1 (≈ 68.4 µM)
COc1ccc(-c2cc(C(=O)Nc3ccccc3F)on2)cc1 | < 0.3
N#Cc1cnc(Sc2ccccc2)nc1 | 26 (≈ 122 µM)
Nc1ccccc1SCc1ccccc1Cl | 3.3 (≈ 13.2 µM)
O=C(Cc1cccs1)NCc1cc(Cl)cc(Cl)c1 | 34.3 (≈ 114 µM)
O=C(CC(=O)Nc1nc(C23CC4CC(CC(C4)C2)C3)cs1)NCCO | 50.8 (≈ 140 µM)
CCC(=O)c1c[nH]c(C(=O)NCc2cccnc2)c1 | > 38.6
O=C(COC(=O)COc1ccccc1)NCc1ccco1 | > 43.4
Cc1ccc(N2C(=NC(=O)c3ccccc3)SC3CS(=O)(=O)CC32)cc1 (configuration not stated) | < 0.4
Cc1cc(C)cc(N(CC(=O)N2CCCC2)S(C)(=O)=O)c1 | > 46.6
COc1ccc(NC(=O)Nc2ccccn2)cc1OC | 16.7 (≈ 61.1 µM)
O=S(=O)(NC1CCSc2ccccc21)c1ccccc1 (configuration not stated) | 15.6 (≈ 51.1 µM)
Cn1c(N)c(C(=O)COC(=O)Cc2cccc(C(F)(F)F)c2)c(=O)n(C)c1=O | 53.2 (≈ 133 µM)
CCOC(=O)CNC(=O)N1c2ccccc2Sc2ccccc21 | > 49.3
COc1ccc(NC(=S)Nc2ccc(N(C)C(C)=O)cc2)cc1 | > 49.4
O=c1[nH]c2ccccc2n1CCCN1CCC(n2c(=O)[nH]c3cc(Cl)ccc32)CC1 | 50.4 (≈ 118 µM)
NS(=O)(=O)c1ccc(NC(=S)NC(=O)C2CCCC2)cc1 | > 49.1
O=C1CCCc2nc(N3CCN(C(=O)c4ccco4)CC3)ncc21 | > 49
O=C(Nc1cccc(F)c1)c1c(O)c2ccccc2[nH]c1=O | < 0.3
Cc1cccc(C)c1NC(=O)CN1C(=O)NC(C)(C2CC2)C1=O (configuration not stated) | > 47.3
